EC50 data for 13 compounds are collected here from patent publication US10245275B2 (ViiV HEALTHCARE UK (NO.4) LIMITED, priority 2014, dated 2019).

Experiment [1] deals with HIV-1 NL4-3 gag A364V virus. Put plainly: microbe, parasite or virus in culture. In kind it is cell-based. The essentials:
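Recombinant NL4-3 reporter virus with Renilla luciferase replacing part of nef, made by transfection of 293T cells. MT-2 cells infected for 4-5 days with serial inhibitor dilutions; antiviral activity quantified by luciferase activity.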

For experiment [2], the system named is WT (wild-type HIV virus; recombinant NL4-3 virus). Put plainly: microbe, parasite or virus in culture. In kind it is cell-based, HIV-1. Summed up: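 MT-2 cells infected 4-5 days with NL4-3 carrying Renilla luciferase in place of part of nef (Gag P373S), virus made by 293T transfection, with serial inhibitor dilutions. Antiviral activity read as luciferase activity by a modified dual-luciferase read-out.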

The mark [3] stands for this setting: Human immunodeficiency virus 1, NL43, MT2, read-out: A364V (EC50, uM), Table 1 regular screen, MT-2 cells, luciferase readout.
[4] abbreviates: Human immunodeficiency virus 1, NL43, MT2, read-out: WT (EC50, uM), Table 1 regular screen, MT-2 cells, luciferase readout.
Where [5] appears, read: Human immunodeficiency virus 1, NL43, MT2, read-out: A364V (EC50, uM), Table 1 regular screen, class symbol.
[6] abbreviates: Human immunodeficiency virus 1, NL43, MT2, read-out: WT (EC50, uM), Table 1 regular screen, class symbol.

Where two headings read alike, the source gives them in different places.

Regarding `C=C(C)[C@@H]1CC[C@]2(NCCN3CCC(C(=O)OCC)(C(=O)OCC)CC3)CC[C@]3(C)[C@H](CC[C@@H]4[C@@]5(C)CC=C(C6=CC[C@@](CF)(C(=O)O)CC6)C(C)(C)[C@@H]5CC[C@]43C)[C@@H]12` [Example 13, (R)-4-((1R,3aS,5aR,5bR,7aR,11aS,11bR,13aR,13bR)-3a-((2-(4,4-bis(ethoxycarbonyl)piperidin-1-yl)ethyl)amino)-5a,5b, 8,8,11a-pentamethyl-1-(prop-1-en-2-yl)-2,3,3a,4,5,5a,5b,6,7,7a,8,11,11a,11b,12,13,13a,13b-octadecahydro-1H-cyclopenta[a]chrysen-9-yl)-1-(fluoromethyl)cyclohex-3-enecarboxylic acid], the 50% effective concentration (EC50) in experiment [1] (setting [3]) stood at 0.196 µM; in experiment [2] (setting [4]), 0.0188 µM.
For the compound `C=C(C)[C@@H]1CC[C@]2(NCCN3CCC(C(=O)O)(C(=O)O)CC3)CC[C@]3(C)[C@H](CC[C@@H]4[C@@]5(C)CC=C(C6=CC[C@@](CF)(C(=O)O)CC6)C(C)(C)[C@@H]5CC[C@]43C)[C@@H]12` [Example 16, 1-(2-(((1R,3aS,5aR,5bR,7aR,11aS,11bR,13aR,13bR)-9-((R)-4-carboxy-4-(fluoromethyl)cyclohex-1-en-1-yl)-5a,5b,8,8,11a-pentamethyl-1-(prop-1-en-2-yl)-2,3,3a,4,5,5a,5b,6,7,7a,8,11,11a,11b,12,13,13a,13b-octadecahydro-1H-cyclopenta[a]chrysen-3a-yl)amino)ethyl)piperidine-4,4-dicarboxylic acid], the EC50 in experiment [1] (setting [3]) is 3 µM; in experiment [2] (setting [4]), 0.43 µM.
As to `C=C(C)[C@@H]1CC[C@]2(NCCN3CCC(C(=O)O)(C(=O)OCC)CC3)CC[C@]3(C)[C@H](CC[C@@H]4[C@@]5(C)CC=C(C6=CC[C@@](CF)(C(=O)O)CC6)C(C)(C)[C@@H]5CC[C@]43C)[C@@H]12` [Example 17], the EC50 in experiment [1] (setting [3]) stood at 3 µM; in experiment [2] (setting [4]) it was 0.0194 µM.
On the same counts, the results for `C=C(C)[C@@H]1CC[C@]2(NCCN3CCSCC3C(=O)O)CC[C@]3(C)[C@H](CC[C@@H]4[C@@]5(C)CC=C(C6=CC[C@@](CF)(C(=O)O)CC6)C(C)(C)[C@@H]5CC[C@]43C)[C@@H]12` (stereo partly drawn) [Example 18, 4-(2-(((1R,3aS,5aR,5bR,7aR,11aS,11bR,13aR,13bR)-9-((R)-4-carboxy-4-(fluoromethyl)cyclohex-1-en-1-yl)-5a,5b,8,8,11a-pentamethyl-1-(prop-1-en-2-yl)-2,3,3a,4,5,5a,5b,6,7,7a,8,11,11a,11b,12,13,13a,13b-octadecahydro-1H-cyclopenta[a]chrysen-3a-yl)amino)ethyl)thiomorpholine-3-carboxylic acid] are 3 µM and 0.0243 µM.
Turning to `C=C(C)[C@@H]1CC[C@]2(NCCO)CC[C@]3(C)[C@H](CC[C@@H]4[C@@]5(C)CC=C(C6=CC[C@@](CF)(C(=O)O)CC6)C(C)(C)[C@@H]5CC[C@]43C)[C@@H]12` [Example 19, (R)-1-(fluoromethyl)-4-((1R,3aS,5aR,5bR,7aR,11aS,11bR,13aR,13bR)-3a-((2-hydroxyethyl)amino)-5a,5b,8,8,11a-pentamethyl-1-(prop-1-en-2-yl)-2,3,3a,4,5,5a,5b,6,7,7a,8,11,11a,11b,12,13,13a,13b-octadecahydro-1H-cyclopenta[a]chrysen-9-yl)cyclohex-3-enecarboxylic acid], the concentration giving a half-maximal response (EC50) in experiment [1] (Human immunodeficiency virus 1, NL43, MT2, read-out: A364V (EC50, uM)) is more than 0.05 µM; in experiment [2] (Human immunodeficiency virus 1, NL43, MT2, read-out: WT (EC50, uM)), less than 0.05 µM.
Take `C=C(C)[C@@H]1CC[C@]2(NCCN3CCCC3=O)CC[C@]3(C)[C@H](CC[C@@H]4[C@@]5(C)CC=C(C6=CC[C@](CF)(C(=O)O)CC6)C(C)(C)[C@@H]5CC[C@]43C)[C@@H]12` [Example 20, (S)-1-(fluoromethyl)-4-((1R,3aS,5aR,5bR,7aR,11aS,11bR,13aR,13bR)-5a,5b, 8,8,11a-pentamethyl-3a-((2-(2-oxopyrrolidin-1-yl)ethyl)amino)-1-(prop-1-en-2-yl)-2,3,3a,4,5,5a,5b,6,7,7a,8,11,11a,11b,12,13,13a,13b-octadecahydro-1H-cyclopenta[a]chrysen-9-yl)cyclohex-3-enecarboxylic acid]: the 50% effective concentration (EC50) in experiment [1] (setting [3]) was determined as 0.129 µM; in experiment [2] (setting [4]) it was 0.00253 µM.
For `C=C(C)[C@@H]1CC[C@]2(NCCCN3CCCC3=O)CC[C@]3(C)[C@H](CC[C@@H]4[C@@]5(C)CC=C(C6=CC[C@](CF)(C(=O)O)CC6)C(C)(C)[C@@H]5CC[C@]43C)[C@@H]12` [Example 21, (S)-1-(fluoromethyl)-4-((1R,3aS,5aR,5bR,7aR,11aS,11bR,13aR,13bR)-5a,5b,8,8,11a-pentamethyl-3a-((3-(2-oxopyrrolidin-1-yl)propyl)amino)-1-(prop-1-en-2-yl)-2,3,3a,4,5,5a,5b,6,7,7a,8,11,11a,11b,12,13,13a,13b-octadecahydro-1H-cyclopenta[a]chrysen-9-yl)cyclohex-3-enecarboxylic acid], the EC50 in experiment [1] (setting [5]) was more than 0.05 µM; in experiment [2] (setting [6]), less than 0.05 µM.
Take `CC(C)[C@@H]1CC[C@]2(NCCN3CCS(=O)(=O)CC3)CC[C@]3(C)[C@H](CC[C@@H]4[C@@]5(C)CC=C(C6=CC[C@@](CF)(C(=O)O)CC6)C(C)(C)[C@@H]5CC[C@]43C)[C@@H]12` [Example 22, (R)-4-((1S,3aS,5aR,5bR,7aR,11aS,11bR,13aR,13bR)-3a-((2-(1,1-dioxidothiomorpholino)ethyl)amino)-1-isopropyl-5a,5b, 8,8,11a-pentamethyl-2,3,3a,4,5,5a,5b,6,7,7a,8,11,11a,11b,12,13,13a,13b-octadecahydro-1H-cyclopenta[a]chrysen-9-yl)-1-(fluoromethyl)cyclohex-3-enecarboxylic acid]: the values for the EC50 in experiment [1] (setting [3]) and in experiment [2] (setting [4]) were 0.0513 µM and 0.00134 µM, respectively.
On to `CC(C)[C@@H]1CC[C@]2(NCCN3CCS(=O)(=O)CC3)CC[C@]3(C)[C@H](CC[C@@H]4[C@@]5(C)CC=C(C6CCC(CF)(C(=O)O)CC6)C(C)(C)[C@@H]5CC[C@]43C)[C@@H]12` (stereo partly drawn) [Example 23, 4-((1S,3aS,5aR,5bR,7aR,11aS,11bR,13aR,13bR)-3a-((2-(1,1-dioxidothiomorpholino)ethyl)amino)-1-isopropyl-5a,5b, 8,8,11a-pentamethyl-2,3,3a,4,5,5a,5b,6,7,7a,8,11,11a,11b,12,13,13a,13b-octadecahydro-1H-cyclopenta[a]chrysen-9-yl)-1-(fluoromethyl)cyclohexanecarboxylic acid], for which the 50% effective concentration (EC50) is more than 0.05 µM in experiment [1] (setting [5]) and less than 0.05 µM in experiment [2] (setting [6]).
With `C=C(C)[C@@H]1CC[C@]2(NCCN3CC(C)S(=O)(=O)C(C)C3)CC[C@]3(C)[C@H](CC[C@@H]4[C@@]5(C)CC=C(C6=CC[C@@](CF)(C(=O)O)CC6)C(C)(C)[C@@H]5CC[C@]43C)[C@@H]12` (stereo partly drawn) [Example 24, (1R)-4-((1R,3aS,5aR,5bR,7aR,11aS,11bR,13aR,13bR)-3a-((2-(2,6-dimethyl-1,1-dioxidothiomorpholino)ethyl)amino)-5a,5b,8,8,11a-pentamethyl-1-(prop-1-en-2-yl)-2,3,3a,4,5,5a,5b,6,7,7a,8,11,11a,11b,12,13,13a,13b-octadecahydro-1H-cyclopenta[a]chrysen-9-yl)-1-(fluoromethyl)cyclohex-3-enecarboxylic acid], the results for the EC50 in experiment [1] (setting [5]) and in experiment [2] (setting [6]) were more than 0.05 µM and less than 0.05 µM, respectively.
Take `C=C(C)[C@@H]1CC[C@]2(NCCN3CC(C)S(=O)(=O)C(C)C3)CC[C@]3(C)[C@H](CC[C@@H]4[C@@]5(C)CC=C(C6=CC[C@](CF)(C(=O)O)CC6)C(C)(C)[C@@H]5CC[C@]43C)[C@@H]12` (stereo partly drawn) [Example 25, (1S)-4-((1R,3aS,5aR,5bR,7aR,11aS,11bR,13aR,13bR)-3a-((2-(2,6-dimethyl-1,1-dioxidothiomorpholino)ethyl)amino)-5a,5b, 8,8,11a-pentamethyl-1-(prop-1-en-2-yl)-2,3,3a,4,5,5a,5b,6,7,7a,8,11,11a,11b,12,13,13a,13b-octadecahydro-1H-cyclopenta[a]chrysen-9-yl)-1-(fluoromethyl)cyclohex-3-enecarboxylic acid]: the EC50 was more than 0.05 µM in experiment [1] (setting [5]) and less than 0.05 µM in experiment [2] (setting [6]).
Turning to `C=C(C)[C@@H]1CC[C@]2(NCCN3CCS(=O)(=O)CC(C)C3)CC[C@]3(C)[C@H](CC[C@@H]4[C@@]5(C)CC=C(C6=CC[C@@](CF)(C(=O)O)CC6)C(C)(C)[C@@H]5CC[C@]43C)[C@@H]12` (stereo partly drawn) [Example 26, (1R)-1-(fluoromethyl)-4-((1R,3aS,5aR,5bR,7aR,11aS,11bR,13aR,13bR)-5a,5b,8,8,11a-pentamethyl-3a-((2-(6-methyl-1,1-dioxido-1,4-thiazepan-4-yl)ethyl)amino)-1-(prop-1-en-2-yl)-2,3,3a,4,5,5a,5b,6,7,7a,8,11,11a,11b,12,13,13a,13b-octadecahydro-1H-cyclopenta[a]chrysen-9-yl)cyclohex-3-enecarboxylic acid], the EC50 was more than 0.05 µM in experiment [1] (setting [5]) and less than 0.05 µM in experiment [2] (setting [6]).
Regarding `C=C(C)[C@@H]1CC[C@]2(NCCN3CCS(=O)(=O)CC(C)C3)CC[C@]3(C)[C@H](CC[C@@H]4[C@@]5(C)CC=C(C6=CC[C@](CF)(C(=O)O)CC6)C(C)(C)[C@@H]5CC[C@]43C)[C@@H]12` (stereo partly drawn) [Example 27, (1S)-1-(fluoromethyl)-4-((1R,3aS,5aR,5bR,7aR,11aS,11bR,13aR,13bR)-5a,5b,8,8,11a-pentamethyl-3a-((2-(6-methyl-1,1-dioxido-1,4-thiazepan-4-yl)ethyl)amino)-1-(prop-1-en-2-yl)-2,3,3a,4,5,5a,5b,6,7,7a,8,11,11a,11b,12,13,13a,13b-octadecahydro-1H-cyclopenta[a]chrysen-9-yl)cyclohex-3-enecarboxylic acid], the EC50 in experiment [1] (setting [5]) is more than 0.05 µM; in experiment [2] (setting [6]) it was less than 0.05 µM.
